# In patent publication US10548897B2, “KSR antagonists” (Icahn School of Medicine at Mount Sinai, priority 2015, dated 2020):
# Counter-ions that a name gives are not always drawn. Like-named read-outs stand apart in the source and are kept apart here.
# Key:
# [1] = test system: KSR-stimulated MEK and ERK phosphorylation; assay: Cell-based reconstitution system monitoring KSR-driven MAPK signaling; conditions: for suppression of KSR-stimulated MEK and ERK phosphorylation: KSR expression-dependent MAPK signaling
# From the text: To assess the biological function of lead compounds as Ras-MAPK pathway antagonists, a simplified cell-based reconstitution system was developed to directly monitor KSR-driven MAPK signaling. […] Based on similarity in phenotype and direct-binding activity, Compound 21 was identified as a small molecule mimic of KSR alleles that suppress oncogenic Ras mutations.
# [2] = target: KSR2 (purified hKSR2-rMEK1 complex) (Homo sapiens (Human), UniProt Q6VAB6); assay: ATP-biotin probe labeling and inhibitor competition (KSR2 band); assay type: binding; conditions: for KSR binding (assessed): panel of known kinase inhibitors; for competition of ATPbiotin probe labeling in KSR2:MEK1 complexes (in words): screen / SAR statements
# From the text: Human KSR2 (residues 634-950) and rabbit MEK1 (residues 1 to 393) were codon optimized for insect cell expression by DNA 2.0. Inserts were expressed with TEV cleavable 6×-His tags from the pFastBac Dual expression vector. Bacmids were used to transfect adherent SF21 cells and viruses were subsequently titred to high levels through serial infections of SF21 cells. […] Briefly, following infections, cells were harvested, lysed, and affinity purified using Co2+ sepharose resin (GoldBio). […] Dialysis retentate was diluted 3 fold and then applied to a Resourse S ion exchange column. […] One-to-one hKSR2-MEK1 complexes were captured in late fractions from an increasing salt gradient. Complexes were later applied to a 120 mL Superdex 200 gel filtration column and finally concentrated to approximately 10 mg/mL before flash freezing for biochemical assays.
# The ATP-biotin assay was performed in buffer containing 25 mM Tris pH 7.5, 150 mM NaCl, 10 mM MgCl2, and 2% DMSO. […] In particular, hKSR2-rMEK1 was pre-incubated with 20 μM of the indicated compounds for 15 minutes. Then, ATP-biotin (Pierce Cat. #88310) was added to a final concentration of 2 μM. Reactions were incubated at room temperature for 5 minutes before being stopped by the addition of 6×SDS loading dye. […] Enhanced chemiluminescence signals corresponding to labeling on KSR2 and MEK1 were visualized and quantified using the Biodoc system (Biorad). Relative signals of Streptavidin HRP on bands corresponding to KSR2 and MEK1 in the presence of compounds relative to DMSO controls were used to determine ‘Percent Inhibition of ATP Probe Labeling’.
# For the ATP^biotin labeling competition screen, samples were applied to a 4-20% Tris-HCl gel, separated, and then transferred to a nitrocellulose membrane. The membrane was blocked with 5% bovine serum albumin diluted in TBS-T for 30 minutes and subsequently probed with the Pierce™ High Sensitivity Streptavidin-HRP. After several washes, the membranes were visualized using enhanced chemiluminescence on a Biodoc (Biorad).
# [3] = target: MEK1 (purified hKSR2-rMEK1 complex) (Oryctolagus cuniculus (Rabbit), UniProt P29678); assay: ATP-biotin probe labeling competition (MEK1 band); assay type: binding; conditions: competition with free ATP, purified KSR2:MEK1; read-out: free ATP IC50, ATPbiotin labeling of MEK1
# From the text: Human KSR2 (residues 634-950) and rabbit MEK1 (residues 1 to 393) were codon optimized for insect cell expression by DNA 2.0. Inserts were expressed with TEV cleavable 6×-His tags from the pFastBac Dual expression vector. Bacmids were used to transfect adherent SF21 cells and viruses were subsequently titred to high levels through serial infections of SF21 cells. […] Briefly, following infections, cells were harvested, lysed, and affinity purified using Co2+ sepharose resin (GoldBio). […] Dialysis retentate was diluted 3 fold and then applied to a Resourse S ion exchange column. This step removed excess MEK1, which binds weakly to the S column. One-to-one hKSR2-MEK1 complexes were captured in late fractions from an increasing salt gradient. Complexes were later applied to a 120 mL Superdex 200 gel filtration column and finally concentrated to approximately 10 mg/mL before flash freezing for biochemical assays.
# The ATP-biotin assay was performed in buffer containing 25 mM Tris pH 7.5, 150 mM NaCl, 10 mM MgCl2, and 2% DMSO. Purified hKSR2-rMEK1 was assayed at 0.5 μM. In particular, hKSR2-rMEK1 was pre-incubated with 20 μM of the indicated compounds for 15 minutes. Then, ATP-biotin (Pierce Cat. #88310) was added to a final concentration of 2 μM. […] Enhanced chemiluminescence signals corresponding to labeling on KSR2 and MEK1 were visualized and quantified using the Biodoc system (Biorad). […]
# [4] = test system: MAPK pathway readouts (pERK, pMEK, pRSK) in A375 and HCT-116; assay: Western blot of MAPK pathway readouts, treatment with trametinib combinations; assay type: cell-based; conditions: for MAPK pathway inhibition (pERK, pMEK, pRSK) in combination with trametinib: combined with trametinib, A375 and HCT-116
# KSR2:B-RAF^F667E dimers = KSR2:B-RAF^F667E dimers (Homo sapiens, UniProt Q6VAB6); assay: Biolayer inferometry of KSR2:B-RAF dimerization (Octet Red96); assay type: binding; conditions: compound at 25 μM
# Protocol: B-RAF and B-RAF mutants (F667E+/−R509H) were immobilized on sensor-heads and KSR2:MEK1 or MEK1 assembly was monitored. Curves indicate dose ranges of KSR2:MEK1 or MEK1 from 625 nM to 10 μM. In all plots, association occurred from 0 to 660 seconds, and dissociation was monitored thereafter up to 1500 seconds. Compound 21 and trametinib were added in the presence of KSR2:MEK1 at a concentration of 25 μM each.
# To directly investigate the impact of Compound 21 on KSR2:B-RAF dimerization, bio-layer inferometry (BLI) was utilized to monitor real-time association and dissociation of KSR2:MEK1 or free MEK1 to a sensor tethered with immobilized B-RAF.
# To specifically monitor KSR2:B-RAF dimerization relative to other possible interactions, a mutation in B-RAF^F667E was identified that eliminates binding to free MEK but not KSR2-MEK1 complexes, as shown in FIGS. 7C-7D. […]
# Interactions between purified B-RAF and the KSR2:MEK1 complex were measured using biolayer inferometry on the Octet Red96 system (Forte Bio). […] Association and dissociation was monitored over 660 and 840 seconds, respectively. Data sets were normalized and analysed using global fit binding models (Fortebio software). […]
# [5] = ATPbiotin probe labeling competition, 0.1 μM KSR2:MEK1, 27 nM to 20 μM compound, triplicate, read-out: KSR2 IC50
# Chain of KSR2 (purified hKSR2-rMEK1 complex) (Q6VAB6 634-950): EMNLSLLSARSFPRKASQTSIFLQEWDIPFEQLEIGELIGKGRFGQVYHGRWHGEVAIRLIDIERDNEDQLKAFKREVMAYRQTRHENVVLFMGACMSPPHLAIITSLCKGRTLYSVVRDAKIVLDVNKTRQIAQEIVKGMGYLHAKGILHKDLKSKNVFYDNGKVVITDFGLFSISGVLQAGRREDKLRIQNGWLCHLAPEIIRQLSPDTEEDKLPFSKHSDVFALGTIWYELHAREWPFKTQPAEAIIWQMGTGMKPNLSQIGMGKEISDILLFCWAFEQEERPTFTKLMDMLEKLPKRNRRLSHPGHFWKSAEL
# Chain of KSR2 (purified hKSR2-rMEK1 complex) (P29678 whole entry partner, the tested form may be a part): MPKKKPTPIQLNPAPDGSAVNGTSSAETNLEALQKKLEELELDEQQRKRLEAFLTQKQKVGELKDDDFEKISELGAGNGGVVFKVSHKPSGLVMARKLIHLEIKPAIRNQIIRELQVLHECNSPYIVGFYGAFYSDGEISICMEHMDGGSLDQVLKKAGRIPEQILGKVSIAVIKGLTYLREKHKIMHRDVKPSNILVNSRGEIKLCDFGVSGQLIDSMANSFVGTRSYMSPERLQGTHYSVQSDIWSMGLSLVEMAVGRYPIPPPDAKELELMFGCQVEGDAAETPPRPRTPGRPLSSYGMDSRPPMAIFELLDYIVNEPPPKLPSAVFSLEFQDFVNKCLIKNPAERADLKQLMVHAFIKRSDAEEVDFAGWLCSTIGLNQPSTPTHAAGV
# Chain of MEK1 (purified hKSR2-rMEK1 complex) (P29678 whole entry, the tested form may be a part): as the sequence (P29678 whole entry partner, the tested form may be a part) above
# Chain of MEK1 (purified hKSR2-rMEK1 complex) (Q6VAB6 634-950 partner): as the sequence (Q6VAB6 634-950) above
smiles,measurement,setting,value
"CC(C)(C)c1nc(-c2cccc(NS(=O)(=O)c3c(F)cccc3F)c2F)c(-c2ccnc(N)n2)s1 [dabrafenib, reference compound]",suppression of KSR-stimulated MEK and ERK phosphorylation,[1],active
same,suppression of KSR-stimulated MAPK signaling with active site mutant KSR^A690F,[1]; KSR^A690F mutant,active
"COc1cc2ncnc(Nc3ccc(O)cc3)c2cc1OC [Compound 7, 4-((6,7-Dimethoxyquinazolin-4-yl)amino)phenol hydrochloride]",IC50,[2]; [5],> 10 µM
"Nc1ncnc2c1ncn2[C@@H]1O[C@H](COP(=O)(O)OP(=O)(O)OP(=O)(O)O)[C@@H](O)[C@H]1O [ATP, reference compound]",IC50,"[2]; competition with free ATP, purified KSR2:MEK1, read-out: free ATP IC50, ATPbiotin labeling of KSR2",86 µM
same,IC50,[3],133 µM
"COc1cc2ncnc(Nc3ccc(Oc4ccccc4)c(C)c3C)c2cc1OC.Cl [Compound 50, N-(2,3-Dimethyl-4-phenoxyphenyl)-6,7-dimethoxyquinazolin-4-amine hydrochloride]",IC50,[2]; [5],> 10 µM
same,suppression of KSR-stimulated MEK and ERK phosphorylation,[1],inactive
"CS(=O)(=O)CCNCc1ccc(-c2ccc3ncnc(Nc4ccc(OCc5cccc(F)c5)c(Cl)c4)c3c2)o1 [lapatinib, reference compound]",KSR binding (assessed),[2],non-KSR binders
same,"MAPK pathway inhibition (pERK, pMEK, pRSK) in combination with trametinib",[4],not observed
"COc1cc2ncnc(Nc3ccc(Oc4ccccc4)cc3)c2cc1OC.Cl [Compound 2, 6,7-Dimethoxy-N-(4-phenoxyphenyl)quinazolin-4-amine]",competition of ATPbiotin probe labeling in KSR2:MEK1 complexes (in words),[2],competitor of probe labeling
"CCN(CC)CCNC(=O)c1c(C)[nH]c(/C=C2\C(=O)Nc3ccc(F)cc32)c1C [sutent, reference compound]",KSR binding (assessed),[2],non-KSR binders
same,"MAPK pathway inhibition (pERK, pMEK, pRSK) in combination with trametinib",[4],not observed
"CC(=O)Nc1cccc(-n2c(=O)n(C3CC3)c(=O)c3c(Nc4ccc(I)cc4F)n(C)c(=O)c(C)c32)c1 [trametinib, reference compound]",enhancement of KSR2:B-RAF dimerization,KSR2:B-RAF^F667E dimers,~2 fold
same,"MAPK pathway inhibition (pERK, pMEK, pRSK), single agent","[4]; alone, compared with Compound 21 + trametinib co-treatment",did not display the same pathway inhibition
"COc1ccc(Nc2ncnc3cc(OC)c(OC)cc23)cc1 [Compound 3, 6,7-Dimethoxy-N-(4-methoxyphenyl)quinazolin-4-amine hydrochloride]",IC50,[2]; [5],> 10 µM
"COc1cc2/c(=N/c3ccc(Oc4ccccc4)cc3)ncn(C)c2cc1OC [Compound 32, (Z)—N-(6,7-Dimethoxy-1-methylquinazolin-4(1H)-ylidene)-4-phenoxyaniline]",IC50,[2]; [5],> 10 µM
same,competition of ATPbiotin probe labeling in KSR2:MEK1 complexes (in words),[2],greatly diminishes KSR2:MEK1 activity
CCCS(=O)(=O)Nc1ccc(F)c(C(=O)c2c[nH]c3ncc(Cl)cc23)c1F [PLX4720],"MAPK pathway inhibition (pERK, pMEK, pRSK) in combination with trametinib",[4],did not display the same pathway inhibition
"C#Cc1cccc(Nc2ncnc3cc(OCCOC)c(OCCOC)cc23)c1 [erlotinib, reference compound]",KSR binding (assessed),[2],non-KSR binders
same,"MAPK pathway inhibition (pERK, pMEK, pRSK) in combination with trametinib",[4],not observed
"COc1cc2nccc(Nc3ccc(Oc4ccccc4)cc3)c2cc1OC.Cl [Compound 11, 6,7-Dimethoxy-N-(4-phenoxyphenyl)quinolin-4-amine hydrochloride]",competition of ATPbiotin probe labeling in KSR2:MEK1 complexes (in words),[2],moderately tolerated
"Cc1nc(Nc2ncc(C(=O)Nc3c(C)cccc3Cl)s2)cc(N2CCN(CCO)CC2)n1 [dasatinib, reference compound]",KSR binding (assessed),[2],non-KSR binders
same,"MAPK pathway inhibition (pERK, pMEK, pRSK) in combination with trametinib",[4],not observed
